Measurements published in patent publication US12221432B2, “Estrogen receptor antagonist” (CHIA TAI TIANQING PHARMACEUTICAL GROUP CO., LTD., priority 2018, dated 2025).
Structures can show the parent of a compound that is named as a salt. Where two headings read alike, the source gives them in different places. Each block holds one compound with its values, some of them ahead of it.

What was measured:
[1] = system: MCF-7 cells; test: MCF-7 cell proliferation inhibition; format: cell-based; details: read-out: IC50 for MCF-7 cell proliferation inhibition
Procedure: EMEM medium was purchased from Wisent, and fetal bovine serum was purchased from Biosera. Promega CellTiter-Glo reagent. MCF-7 cells were purchased from the Cell Bank of Type Culture Collection Committee of the Chinese Academy of Sciences. Nivo5 multi-marker analyzer (PerkinElmer).
MCF-7 cells were seeded in a white 384-well plate at 600 cells/[…] suspension/well. The plate was incubated in a CO2 incubator overnight.
On the day of treatment, a day 0 plate coated under the same conditions the day before was taken, centrifuged to remove the medium, added with 25 microliters of Promega CellTiter-Glo reagent to each well, and incubated at room temperature for 10 minutes to stabilize the luminescence signal. Measures were read by PerkinElmer Nivo multi-marker analyzer as an initial value for 0% inhibition.
The test compounds were serially 5-fold diluted to the 10th concentration with a multichannel pipette, i.e., from 2 millimoles to […], and the experiments were set up in duplicate. 47.5 microliters of medium was added to the intermediate plate, 2.5 microliters of serially diluted compounds were transferred to corresponding wells of the intermediate plate, and after mixing, 5 microliters of the mixture per well was transferred to the cell plate. The plate was incubated in a CO2 incubator for 6 days.
After 6 days of co-incubation with the compounds, the plate was centrifuged to remove the medium, added with 25 microliters of Promega CellTiter-Glo reagent to each well, and incubated at room temperature for 10 minutes to stabilize the luminescence signal. Measures were read by PerkinElmer Nivo multi-marker analyzer.
The original data was converted into inhibition rate by the formula: % inhibition=((RFUCmpd−AVER(RFUNeg.Ctrl))/((AVER(RFUDay0)−AVER(RFUNeg.Ctrl))×100%. Curve fitting was conducted and IC50 was calculated.

[2] = Pharmacokinetics study in mice (cassette); format: in vivo; details: female, Balb/c, plasma, mouse cassette PK
From the text: (§1) Objective: To determine the drug concentration in the plasma of the mice at different times after intravenous and oral administration of the test compounds by LC/MS/MS using female Balb/c mice as the test animals. To investigate the pharmacokinetic performance of the test compounds in mice and to evaluate the pharmacokinetic characteristics.
Test animals: 4 healthy female Balb/c mice were divided into 2 groups according to the principle of similar weight, 2 in the IV group and 2 in the PO group. The animals were purchased from Shanghai Lingchang Biotechnology Co., Ltd.
(§2) IV group: Appropriate amounts of compounds were weighed respectively, prepared into 2 mg/mL solutions, then mixed to give a 0.5 mg/mL solution, which was stirred and ultrasonicated until a clear state. The vehicle was 15% HP-b-CD.
(§3) PO group: An appropriate amount of the IV group solution was taken and diluted to 0.4 mg/mL with 15% HP-b-CD.
(§4) Administration: After fasting overnight, the IV group was administered intravenously, and the dose of the test compound was 1 mg/kg; the PO group was administered intragastrically, and the dose of the test compound was 2 mg/kg.
(§5) Procedures: For IV group, 30 μL of blood was collected from the saphenous vein of the female Balb/c mice at 0.0833, 0.25, 0.5, 1, 2, 4, 8, and 24 hours post-dose, and placed in a commercial anticoagulant tube with EDTA-K2 added in advance. For PO group, 30 μL of blood was collected from the saphenous vein of the female Balb/c mice at 0.25, 0.5, 1, 2, 4, 8, 12 and 24 hours post-dose, and placed in a commercial anticoagulant tube with EDTA-K2 added in advance. The blood samples were centrifuged (3,200 g, 4° C., 10 minutes) to give plasma samples, which was transferred to a pre-cooled centrifuge tube, frozen in dry ice, and stored in an ultra-low temperature freezer at −60° C. or lower until the LC-MS/MS analysis. The animals were given free access to food 4 hours after the administration. LC/MS/MS method was used to determine the content of the test compounds in the plasma of mice after intravenous and oral administration. The linear range of the method is 2.00-2000 nM.

[3] = Pharmacokinetics study in rats (cassette); format: in vivo; details: female, SD, plasma, rat cassette PK
From the text: as §1, with “Experimental objective:” for “Objective:”, “rats” for “mice”, “SD rats” for “Balb/c mice”
Test animals: 4 healthy female SD rats were divided into 2 groups according to according to the principle of similar weight, 2 in the IV group and 2 in the PO group. Animal used in this study were purchased from Beijing Vital River Laboratory Animal Technology Co., Ltd.
as §2, §3, §4
as §5, with “200” for “30”, “jugular” for “saphenous”, “SD rats” for “Balb/c mice”

[4] = system: MCF-7 breast cancer cell xenograft; test: In vivo efficacy, MCF-7 breast cancer xenograft; set-up: species or system BALB/c nude mice; details: for Tumor volume 27 days after grouping: Mean ± SEM; for T/C / TGI: day 27
Procedure: This study was intended to evaluate the anti-tumor efficacy of compounds of the present application in MCF-7 breast cancer cell xenograft BALB/c nude mice (provided by Beijing Vital River Laboratory Animal Technology Co., Ltd., with the number of test animals in each experimental group being 7).
Three days before the xenograft, the mice were inoculated with 0.36 mg of 60-day sustained-release estrogen tablets subcutaneously on the left shoulder. In the logarithmic growth phase, the cells were collected and counted. The cell density was adjusted to 10×10^7 cells/mL, added with an equal volume of Matrigel and mixed for inoculation. Each mouse was xenografted subcutaneously with 0.2 mL of MCF-7 tumor cell suspension (10×10^6) on the right shoulder. On the 14th day after tumor cell xenograft, the mice were grouped and administered the drugs once a day, with an average tumor volume of 200 mm^3 and a body weight of 22.0-23.0 g. Tumor volume and body weight were measured twice a week after grouping. The tumor growth rate (T/C) and tumor growth inhibition rate (TGI) were calculated for the last tumor measurement data on the 27th day after grouping, and the anti-tumor efficacy of the compound was evaluated by TGI (%) or relative tumor proliferation rate T/C (%). TGI (%), reflects the tumor growth inhibition rate. TGI (%)=[(1-(average tumor volume at the end of treatment in a treatment group—average tumor volume at the start of treatment in the treatment group))/(average tumor volume at the end of treatment in the solvent control group—average tumor volume at the start of treatment in the solvent control group)]×100%, relative tumor proliferation rate T/C (%)=TRTV/CRTV×100% (TRTV: average RTV in the treatment group; CRTV: average RTV in the negative control group). Relative tumor volume (RTV) was calculated based on the results of tumor measurement. The formula is RTV=Vt/V0, wherein V0 is the tumor volume measured when grouping and administering (i.e., D0), and Vt is the tumor volume at a certain measurement, the data of TRTV and CRTV should be measured on the same day.

[5] = Homo sapiens, MCF7, 144 h, 6 days incubation, CellTiter-Glo
[6] = 6 days incubation, CellTiter-Glo
[7] = iv, i.v. 1 mg/kg, read-out: Vdss

SMILES: CC/C(=C(/c1ccc(OCCNC/C=C/C(=O)N2CC(CF)C2)nc1)c1[nH]c2ccccc2c1Cl)c1ccccc1 [Compound 27]
- IC50 [1, 5]: 0.49 nM

SMILES: CN(C)C(=O)/C=C/CNCCOc1ccc(/C(=C(/CC(F)(F)F)c2ccccc2C#N)c2[nH]c3ccccc3c2Cl)cn1 [Compound 10]
- IC50 [1, 5]: 2.11 nM

SMILES: CN(C)C(=O)/C=C/CNCCOc1ccc(/C(=C(/CC(F)(F)F)c2ccc(F)cc2Cl)c2[nH]c3ccccc3c2Cl)cn1 [Compound 9]
- IC50 [1, 5]: 2.36 nM

SMILES: CC/C(=C(/c1ccc(OCCNC/C=C/C(=O)N(C)C)nc1)c1[nH]c2ccccc2c1Cl)c1csc(C)c1 [Compound 16]
- IC50 [1, 5]: 1.11 nM

SMILES: CN(C)C(=O)/C=C/CNCCOc1ccc(/C(=C(/CC(F)(F)F)c2c(F)cncc2F)c2[nH]c3ccccc3c2Cl)cn1 [Compound 8]
- IC50 [1, 6]: 2.72 nM

SMILES: CC/C(=C(/c1ccc(OCCN(C/C=C/C(=O)N(C)C)C(=O)OC(C)(C)C)nc1)c1[nH]c2ncccc2c1Cl)c1ccccc1 [Compound 5]
- IC50 [1, 6]: 4.74 nM

SMILES: CC/C(=C(/c1ccc(OCCNC/C=C/C(=O)N(C)C)nc1)c1cc2ccccc2[nH]1)c1ccc(F)cc1Cl [Compound 11]
- IC50 [1, 5]: 4.13 nM

SMILES: CC/C(=C(/c1ccc(OCCNC/C=C/C(=O)N2CCC2)nc1)c1[nH]c2ccccc2c1Cl)c1ccccc1 [Compound 26]
- IC50 ([1]; Homo sapiens, MCF7, 144 h): 3.82 nM

SMILES: C=CC(=O)NCCOc1ccc(/C(=C(/CC)c2ccc(F)cc2Cl)c2[nH]c3ccccc3c2Cl)cn1 [Compound 7]
- IC50 [1, 5]: 4.25 nM

More lines, main results first:

- IC50 [1, 5]: 2.35 nM
SMILES: CC/C(=C(/c1ccc(OCCNC/C=C/C(=O)N(C)C)nc1)c1[nH]c2ccccc2c1Cl)c1cccc(C)c1 [Compound 18]

- IC50 [1, 5]: 1.6 nM
SMILES: CC/C(=C(/c1ccc(OCCNC/C=C/C(=O)N(C)C)nc1)c1[nH]c2ccccc2c1Cl)c1ccc(Cl)cc1Cl [Compound 15]

- IC50 [1, 5]: 2.75 nM
SMILES: CC/C(=C(/c1ccc(OCCNC/C=C/C(=O)N(C)C)nc1F)c1[nH]c2ccccc2c1Cl)c1cccc(OC)c1 [Compound 19]

- IC50 [1, 5]: 1 nM
SMILES: CC/C(=C(/c1ccc(OCCNC/C=C/C(=O)N(C)C)nc1)c1[nH]c2ccccc2c1Cl)c1ccccc1Cl [Compound 14]

- IC50 [1, 5]: 1.46 nM
SMILES: CC/C(=C(/c1ccc(OCCNC/C=C/C(=O)N(C)C)nc1)c1[nH]c2ccccc2c1C)c1cccc(OC)c1 [Compound 20]

- IC50 [1, 5]: 2.21 nM
SMILES: CC/C(=C(/c1ccc(OCCNC/C=C/C(=O)N(C)C)cc1)c1[nH]c2ccccc2c1Cl)c1cccc(OC)c1 [Compound 21]

- AUC(0-t) ([2]; iv, i.v. 1 mg/kg): 1.1 µM·h
- clearance ([2]; iv, i.v. 1 mg/kg): 26 mL/min/kg
- half-life ([2]; iv, i.v. 1 mg/kg): 1.85 h
- Vd [2, 7]: 3.45 L/kg
- AUC(0-t) ([2]; po, p.o. 2 mg/kg): 0.503 µM·h
- Cmax ([2]; po, p.o. 2 mg/kg): 159 nM
- Tmax ([2]; po, p.o. 2 mg/kg): 0.25 h
- bioavailability ([2]; po, p.o. 2 mg/kg): 22.9%
- half-life ([2]; po, p.o. 2 mg/kg): 3.25 h
- AUC(0-t) ([3]; iv, i.v. 1 mg/kg): 1.9 µM·h
- clearance ([3]; iv, i.v. 1 mg/kg): 15.8 mL/min/kg
- half-life ([3]; iv, i.v. 1 mg/kg): 3.98 h
- Vd [3, 7]: 4.86 L/kg
- AUC(0-t) ([3]; po, p.o. 2 mg/kg): 1.84 µM·h
- Cmax ([3]; po, p.o. 2 mg/kg): 233 nM
- Tmax ([3]; po, p.o. 2 mg/kg): 2 h
- bioavailability ([3]; po, p.o. 2 mg/kg): 48.4%
- half-life ([3]; po, p.o. 2 mg/kg): 3.26 h
SMILES: CC/C(=C(/c1ccc(OCCNC/C=C/C(=O)N(C)C)nc1)c1[nH]c2ccccc2c1Cl)c1cccc(OC)c1 [Compound 4 monohydrochloride]
- Tumor volume 27 days after grouping ([4]; 3 mg/kg once a day): 396 ± 58 mm^3
- T/C ([4]; 3 mg/kg once a day): 28.74%
- TGI ([4]; 3 mg/kg once a day): 83%
- Tumor volume 27 days after grouping ([4]; 10 mg/kg once a day): 124 ± 5 mm^3
- T/C ([4]; 10 mg/kg once a day): 9.32%
- TGI ([4]; 10 mg/kg once a day): 106%

- IC50 [1, 5]: 2.67 nM
SMILES: CC/C(=C(/c1ccc(OCCNC/C=C/C(=O)N(C)C)nc1)c1[nH]c2ccccc2c1Cl)c1ccc(F)cc1F [Compound 17]

- IC50 [1, 5]: 0.64 nM
SMILES: CC/C(=C(/c1ccc(OCCNC/C=C/C(=O)N(C)C)nc1)c1[nH]c2ccccc2c1Cl)c1ccccc1C#N [Compound 2]

- IC50 [1, 5]: 0.61 nM
SMILES: CC/C(=C(/c1ccc(OCCNC/C=C/C(=O)N(C)C)nc1)c1[nH]c2ccccc2c1Cl)c1cccc(OC)c1 [Compound 4]

- IC50 [1, 5]: 0.87 nM
SMILES: CC/C(=C(/c1ccc(OCCNC/C=C/C(=O)N(C)C)nc1)c1[nH]c2ccccc2c1Cl)c1ccccc1 [Compound 3]
